Results published in US3957996A (priority 1973, dated 1976).
Several values for one entry are separate records, joined by “and”; a condition that tells them apart may be missing. Equal entries are not always repeated. Where two headings read alike, the source gives them in different places.

Tests used:
[1] = system: peridural space / spinal roots of dogs (digital pain, scrotal pain, weight support); type: in vivo, Mature male beagles
[2] = system: sheep (anal, vulv.-scrotal and digital pain); type: in vivo; conditions: Compound C alone 1%
rat sciatic nerve = type: in vivo, Female Charles River rats
[3] = system: inward initial sodium current; conditions: voltage-clamped giant axon; cited from earlier work
[4] = system: outward potassium current; conditions: voltage-clamped giant axon; cited from earlier work
[5] = alone: S 0.75%, T 1%, bupivicaine 0.5%, epinephrine 1:100,000, 5 ml
[6] = compound alone 1.0%, no vasoconstrictor
[7] = compound alone 0.5%, no vasoconstrictor
[8] = local anesthetic alone: lidocaine 2.0%, dibucaine 0.125%, procaine 2.0%, no epinephrine
[9] = local anesthetic alone: lidocaine 2.0%, dibucaine 0.125%, procaine 2.0%, no epinephrine, approximate
[10] = local anesthetic alone 0.25%, no vasoconstrictor
[11] = 5 ml, epinephrine 1:100,000, lidocaine 2%
[12] = 5 ml, epinephrine 1:100,000, lidocaine 2%, saxitoxin 4 μg/ml
[13] = 1:100,000 epinephrine, procaine 1%, saxitoxin 1 μg/ml

SMILES: CCCCN1CCCCC1C(=O)Nc1c(C)cccc1C (stereo not shown) [Bupivicaine, bupivacaine]
- Duration of block of Digital Pain [1, 5]: 232 to 269 min
- Duration of block of Scrotal Pain [1, 5]: 94 min and 139 min
- Duration of block of Scrotal Pain ([1]; alone: S 0.75%, T 1%, bupivicaine 0.5%, epinephrine 1:100,000, 5 ml, listed as bupivicaine): about 94 min.

SMILES: CCCN(CC(=O)Nc1c(C)cccc1C)C(C)(C)CC [Compound C, 2-(N-n-Propyl-tert. amylamino)-2',6'-acetoxylidide]
- Duration of block of Digital Pain [2]: 45 to 60 min
- Onset time [2]: 5 to 10 min
- Duration of block of Scrotal Pain ([1]; C alone 1%, 10 ml, epinephrine 1:100,000, 2 animals): 192 min and 251 min

SMILES: Cc1cccc(C)c1NC(=O)CNC1CCC1 [Compound K, 2-Cyclobutylamino-2',6'-acetoxylidide]
- Frequency (rat sciatic nerve; [6]): 6/6

SMILES: CCC(C)N(CC)CC(=O)Nc1c(C)cccc1C (stereo not shown) [Compound P, 2-(N-Ethyl-sec. butylamino)-2',6'-acetoxylidide]
- Frequency (in words) (rat sciatic nerve; Example 5, STX 2 μg/ml in combinations): poor
- Duration, mean ± S.D. (rat sciatic nerve; [7]): 45 min
- Frequency (rat sciatic nerve; [7]): 2/6

SMILES: CCCCOc1cc(C(=O)NCCN(CC)CC)c2ccccc2n1 [Dibucaine, dibucaine]
- Duration of complete block, mean ± standard deviation (rat sciatic nerve; [8]): 170 ± 33 min
- Frequency of complete block (C) (rat sciatic nerve; [8]): 5/5
- Onset (rat sciatic nerve; [9]): 4 min

SMILES: CCCOc1ccc(C(=O)CCN2CCCCC2)cc1 [Falicain, falicain]
- Duration, mean ± S.D. (rat sciatic nerve; [10]): 94 ± 21 min
- Frequency (rat sciatic nerve; [10]): 5/5
- Duration, mean ± S.D. (rat sciatic nerve; local anesthetic alone 0.25%, no vasoconstrictor, listed as falicain): about 94 min.

SMILES: Cc1cccc(C)c1NC(=O)CN(C)C [H, 2-Dimethylamino-2'-6'-acetoxylidide]
- Frequency (rat sciatic nerve; [7]): 5/6
- Duration, mean ± S.D. (rat sciatic nerve; [6]): 76 ± 12 min
- Frequency (rat sciatic nerve; [6]): 6/6

SMILES: CCNCC(=O)Nc1c(C)cccc1C [J, 2-Ethylamino-2',6'-acetoxylidide]
- Frequency (rat sciatic nerve; [6]): 6/6

SMILES: CCC(C)(C)NCC(=O)Nc1c(C)cccc1C [L, 2-tert. Amylamino-2',6'-acetoxylidide]
- Frequency (rat sciatic nerve; [7]): 6/6
- Duration, mean ± S.D. (rat sciatic nerve; [6]): 101 ± 8 min
- Frequency (rat sciatic nerve; [6]): 6/6

SMILES: CCN(CC)CC(=O)Nc1c(C)cccc1C [Lidocaine, lidocaine]
- Duration of complete block, mean ± standard deviation (rat sciatic nerve; [8]): 141 ± 28 min
- Frequency of complete block (C) (rat sciatic nerve; [8]): 5/5
- Onset (rat sciatic nerve; [9]): 1 min
- Duration: mean, Weight Support [1, 11]: 137 min
- Duration: range, Weight Support [1, 11]: 108 to 162 min
- Duration: mean, Digital Pain [1, 12]: 127 min
- Duration: mean, Scrotal Pain [1, 12]: 111 min
- Duration: range, Digital Pain [1, 12]: 72 to 162 min
- Duration: range, Scrotal Pain [1, 12]: 62 to 152 min
- Onset: mean, Digital Pain [1, 12]: 7 min
- Onset: mean, Scrotal Pain [1, 12]: 8 min
- Onset: mean, Weight Support [1, 12]: 5 min
- Onset: range, Digital Pain [1, 12]: 5 to 13 min
- Onset: range, Scrotal Pain [1, 12]: 5 to 13 min
- Onset: range, Weight Support [1, 12]: 3 to 6 min
- Duration (salient points, in words) ([1]; Table III footnote): short
- Frequency (salient points, in words) ([1]; Table III footnote): good

SMILES: CCCCN(C)CC(=O)Nc1c(C)cccc1C [M, 2-(N-Methyl-n-butylamino)-2',6'-acetoxylidide]
- Frequency (rat sciatic nerve; [6]): 5/6

SMILES: CCCCOc1ccc(OCCCN2CCOCC2)cc1 [Pramoxine, pramoxine]
- Anesthetic effect (in words) (rat sciatic nerve; Example 5, STX 2 μg/ml or pramoxine 0.25% alone): no anesthetic effect whatever was observed
- Duration, mean ± S.D. (rat sciatic nerve; [10]): 0 min
- Frequency (rat sciatic nerve; [10]): 0/5

SMILES: CCN(CC)CCOC(=O)c1ccc(N)cc1 [Procaine, procaine]
- Effect on inward (initial) sodium current (in words) [3]: reduce
- Duration, mean ± standard deviation (rat sciatic nerve; [13]): 104 ± 15 min
- Frequency (rat sciatic nerve; [13]): 100%
- Onset (rat sciatic nerve; [13]): 2 min
- Duration of complete block, mean ± standard deviation (rat sciatic nerve; [8]): 99 ± 8 min
- Frequency of complete block (C) (rat sciatic nerve; [8]): 5/5
- Onset (rat sciatic nerve; [9]): 1 min
- Effect on outward potassium current (in words) [4]: reduce

SMILES: Cc1cccc(C)c1NC(=O)C(C)N (stereo not shown) [Q, 2-Amino-2',6'-propionoxylidide]
- Frequency (rat sciatic nerve; [7]): 4/6
- Duration, mean ± S.D. (rat sciatic nerve; [6]): 79 ± 19 min
- Frequency (rat sciatic nerve; [6]): 5/6

SMILES: CCCN(CC)C(CC)C(=O)Nc1c(C)cccc1C (stereo not shown) [S, 2-(N-Ethyl-n-propylamino)-2',6'-butyroxylidide]
- Duration of block of Digital Pain [1, 5]: 151 (77-256) min.
- Duration of block of Scrotal Pain [1, 5]: 128 (82-173) min.

SMILES: CCCC(C(=O)Nc1c(C)cccc1C)N(CC)CC (stereo not shown) [T, 2-Diethylamino-2',6'-valeroxylidide]
- Duration of block of Digital Pain [1, 5]: 301 (238-365) min.
- Duration of block of Scrotal Pain [1, 5]: 202 (185-218) min.

SMILES: COC(=O)[C@H]1[C@@H](OC(=O)c2ccccc2)C[C@@H]2CC[C@H]1N2C [cocaine]
- Effect on inward (initial) sodium current (in words) [3]: reduce
- Effect on outward potassium current (in words) [4]: reduce
